Laboratory results taken from ChEMBL document CHEMBL1201862, “PubChem BioAssay data set” (2004).
Calls of active or inactive are those of the source.

Tests used:
HEK293 = experiment: inhibitors of LMP1-driven NF-kB reporter, dose response, cell-based, HEK293, luciferase, cherry-pick (AID 588343); assay type: functional; conditions: Homo sapiens
Interleukin-8 [1] = target: T1, Interleukin-8 (Homo sapiens, UniProt P10145); experiment: Dose Response confirmation of uHTS small molecule hits for cystic fibrosis induced NFkb Inhibitors in a TNFa-induced IL8 counterscreen.; assay type: functional; conditions: read-out: IC50_Mean
T1 sequence (P10145 whole entry): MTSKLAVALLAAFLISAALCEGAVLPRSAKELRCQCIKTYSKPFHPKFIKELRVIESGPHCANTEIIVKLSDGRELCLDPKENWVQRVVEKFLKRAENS

Interleukin-8 [2] = target: T1, Interleukin-8; experiment: Dose Response confirmation of uHTS small molecule hits for cystic fibrosis induced NFkb Inhibitors in a PAF-induced IL8 counterscreen.; assay type: functional; conditions: read-out: IC50_Mean
[3] = HepG2 cell cytotoxicity, cytotoxicity control, set 4 (AID 504910); assay type: functional; conditions: Mycobacterium tuberculosis
Prothrombin = Prothrombin (Bos taurus, UniProt P00735); experiment: thrombin inhibition, dose response, biochemical, fluorescence polarization, uHTS hits (AID 602369); assay type: functional
[4] = target: DNA (cytosine-5)-methyltransferase 1 (Homo sapiens, UniProt P26358); experiment: DNMT1 methyltransferase inhibitors, confirmation, biochemical, fluorescent molecular beacon (AID 602386); assay type: functional
[5] = target: 26S proteasome non-ATPase regulatory subunit 14 (Homo sapiens, UniProt O00487); experiment: inhibition of proteasome subunit RPN11 – biochemical, fluorescence polarization, uHTS hits, confirmation (AID 602368); assay type: functional
[6] = target: Eukaryotic translation initiation factor 4E (Mus musculus, UniProt P63073); experiment: eIF4E–eIF4G protein interaction inhibitors, dose response, biochemical, TR-FRET (AID 855); assay type: functional;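 further: potency for disrupting eIF4E binding to eIF4GI seen as loss of FRET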
Large T antigen = Large T antigen (Simian virus 40, UniProt P03070); assay type: functional, Betapolyomavirus macacae;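 further: Confirmatory-stage PubChem screen for compounds that inhibit SV40 T antigen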
[7] = target: T2, Tyrosine-protein phosphatase non-receptor type 7 (Homo sapiens, UniProt P35236); assay type: functional
T2 sequence (P35236 whole entry): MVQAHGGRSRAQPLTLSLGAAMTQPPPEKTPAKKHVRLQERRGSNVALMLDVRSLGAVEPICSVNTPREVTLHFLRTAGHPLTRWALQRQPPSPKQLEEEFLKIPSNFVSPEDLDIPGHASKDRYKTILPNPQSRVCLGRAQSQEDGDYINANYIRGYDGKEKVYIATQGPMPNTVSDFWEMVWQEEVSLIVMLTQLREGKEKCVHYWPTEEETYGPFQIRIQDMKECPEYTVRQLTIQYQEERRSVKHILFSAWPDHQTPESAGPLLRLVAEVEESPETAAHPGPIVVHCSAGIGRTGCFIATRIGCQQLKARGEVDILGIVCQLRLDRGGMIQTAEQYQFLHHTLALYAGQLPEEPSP

[8] = target: T3, Dual specificity protein phosphatase 6 (Rattus norvegicus, UniProt Q64346)
T3 sequence (Q64346 whole entry): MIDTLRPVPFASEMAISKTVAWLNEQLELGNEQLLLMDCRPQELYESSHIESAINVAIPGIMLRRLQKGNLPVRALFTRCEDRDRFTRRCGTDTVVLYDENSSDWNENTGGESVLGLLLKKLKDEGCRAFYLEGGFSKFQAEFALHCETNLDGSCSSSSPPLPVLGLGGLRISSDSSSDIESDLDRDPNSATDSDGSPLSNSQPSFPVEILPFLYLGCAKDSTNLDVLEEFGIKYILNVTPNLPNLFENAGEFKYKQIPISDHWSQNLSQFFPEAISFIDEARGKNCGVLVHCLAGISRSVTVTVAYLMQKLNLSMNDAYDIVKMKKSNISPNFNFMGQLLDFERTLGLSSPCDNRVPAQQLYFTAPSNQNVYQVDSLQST

ORF 73 = ORF 73 (Human herpesvirus 8, UniProt O40947); experiment: inhibitors of C-LANA binding to LBS DNA, dose response, biochemical, fluorescence polarization, cherry-picked samples (AID 504725); parameters: species or system Human gammaherpesvirus 8;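 further: fluorescence polarization of a labeled DNA duplex reporting LANA DNA binding; potency is for inhibitors that block LANA binding to the DNA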
[9] = target: Heat shock 70 kDa protein 1A (Homo sapiens, UniProt P0DMV8); experiment: Hsp70 inhibitors, SAR follow-up, biochemical, fluorescence polarization (AID 1072)
[10] = target: Heat shock cognate 71 kDa protein (Homo sapiens, UniProt P11142); experiment: In Vitro Hsc70 Dose Response Fluorescence Polarization Assay. [Related pubchem assays: 1072 ]
HeLa = experiment: HeLa cell cytotoxicity, dose response, cytotoxicity control, 24 h, cherry-picked samples (AID 504726); assay type: functional, cell-based; conditions: Homo sapiens;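 further: potency for cytotoxicity as loss of luminescence signal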
[11] = target: Glyceraldehyde-3-phosphate dehydrogenase (Homo sapiens, UniProt P04406)
[12] = target: 72 kDa type IV collagenase (Homo sapiens, UniProt P08253); experiment: Dose Response validation of uHTS RPN11 inhibitor hits using a MMP-2 Fluorescence assay.; assay type: functional
[13] = target: T3, Dual specificity protein phosphatase 6; experiment: MKP-3 phosphatase inhibitors, primary screen, biochemical, rat enzyme, in vitro (AID 425)
[14] = target: T3, Dual specificity protein phosphatase 6; assay type: functional
[15] = target: T4, Lysine-specific demethylase 4C (Homo sapiens, UniProt Q9H3R0); experiment: GASC-1 (JMJD2C) histone demethylase inhibitors, dose response, biochemical, DELFIA europium, cherry-picked samples (AID 488835); assay type: functional
T4 sequence (Q9H3R0 whole entry): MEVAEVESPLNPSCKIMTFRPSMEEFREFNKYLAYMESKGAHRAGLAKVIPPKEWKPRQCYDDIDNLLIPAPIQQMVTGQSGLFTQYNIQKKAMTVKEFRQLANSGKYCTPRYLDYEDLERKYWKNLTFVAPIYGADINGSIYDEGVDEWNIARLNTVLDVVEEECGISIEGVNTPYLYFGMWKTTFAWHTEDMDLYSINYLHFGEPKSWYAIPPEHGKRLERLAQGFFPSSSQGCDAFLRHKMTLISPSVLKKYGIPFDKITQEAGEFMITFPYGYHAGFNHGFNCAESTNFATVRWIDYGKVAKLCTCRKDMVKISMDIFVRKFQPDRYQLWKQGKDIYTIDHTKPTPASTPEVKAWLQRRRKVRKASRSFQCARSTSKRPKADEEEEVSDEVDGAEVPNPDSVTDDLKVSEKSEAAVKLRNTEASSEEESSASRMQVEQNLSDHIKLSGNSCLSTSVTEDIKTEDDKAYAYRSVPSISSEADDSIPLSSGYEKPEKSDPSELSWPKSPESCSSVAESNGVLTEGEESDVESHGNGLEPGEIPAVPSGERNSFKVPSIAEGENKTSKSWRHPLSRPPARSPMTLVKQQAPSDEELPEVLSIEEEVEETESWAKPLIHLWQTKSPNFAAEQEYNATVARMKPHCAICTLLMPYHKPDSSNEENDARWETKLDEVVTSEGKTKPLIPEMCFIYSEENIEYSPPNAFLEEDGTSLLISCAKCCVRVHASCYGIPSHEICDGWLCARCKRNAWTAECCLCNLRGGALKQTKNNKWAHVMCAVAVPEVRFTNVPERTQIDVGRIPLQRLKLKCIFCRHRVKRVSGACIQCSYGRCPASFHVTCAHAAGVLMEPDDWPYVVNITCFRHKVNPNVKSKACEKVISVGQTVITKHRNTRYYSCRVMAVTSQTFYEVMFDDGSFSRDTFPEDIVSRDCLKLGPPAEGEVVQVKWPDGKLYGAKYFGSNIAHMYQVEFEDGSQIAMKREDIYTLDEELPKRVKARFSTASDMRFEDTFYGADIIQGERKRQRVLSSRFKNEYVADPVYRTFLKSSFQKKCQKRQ

[16] = target: T5, High affinity choline transporter 1 (Homo sapiens, UniProt Q9GZV3); experiment: inhibitors of CHT choline uptake, dose response, cell-based, 3H-choline uptake, CHT LV-AA trafficking mutant, CRC (AID 602208); assay type: functional
T5 sequence (Q9GZV3 whole entry): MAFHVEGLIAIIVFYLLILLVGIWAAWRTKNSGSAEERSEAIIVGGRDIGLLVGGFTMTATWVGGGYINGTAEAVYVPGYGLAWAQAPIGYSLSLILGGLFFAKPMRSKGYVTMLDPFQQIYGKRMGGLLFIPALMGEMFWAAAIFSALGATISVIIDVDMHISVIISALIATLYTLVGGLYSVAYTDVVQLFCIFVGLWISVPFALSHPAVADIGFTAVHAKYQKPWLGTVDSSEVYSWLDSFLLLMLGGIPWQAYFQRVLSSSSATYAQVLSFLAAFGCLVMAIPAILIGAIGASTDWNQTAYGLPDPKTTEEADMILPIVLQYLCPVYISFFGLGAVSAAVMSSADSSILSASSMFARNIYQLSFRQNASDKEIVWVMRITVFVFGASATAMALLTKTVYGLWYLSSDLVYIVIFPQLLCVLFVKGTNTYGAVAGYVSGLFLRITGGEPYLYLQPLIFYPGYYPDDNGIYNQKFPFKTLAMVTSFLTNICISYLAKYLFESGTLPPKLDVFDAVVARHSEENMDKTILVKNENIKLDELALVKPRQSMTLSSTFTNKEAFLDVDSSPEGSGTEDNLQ

[17] = target: T5, High affinity choline transporter 1; experiment: CHT inhibitors, dose response, cell-based, 5-point CRC, membrane potential dye (AID 504840); assay type: functional
[18] = target: T5, High affinity choline transporter 1; experiment: CHT inhibitors, dose response, cell-based, 10-point CRC, membrane potential dye (AID 588401); assay type: functional;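 further: membrane potential dye fluorescence of choline-evoked depolarization via CHT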

Large T antigen, sequence (P03070 whole entry): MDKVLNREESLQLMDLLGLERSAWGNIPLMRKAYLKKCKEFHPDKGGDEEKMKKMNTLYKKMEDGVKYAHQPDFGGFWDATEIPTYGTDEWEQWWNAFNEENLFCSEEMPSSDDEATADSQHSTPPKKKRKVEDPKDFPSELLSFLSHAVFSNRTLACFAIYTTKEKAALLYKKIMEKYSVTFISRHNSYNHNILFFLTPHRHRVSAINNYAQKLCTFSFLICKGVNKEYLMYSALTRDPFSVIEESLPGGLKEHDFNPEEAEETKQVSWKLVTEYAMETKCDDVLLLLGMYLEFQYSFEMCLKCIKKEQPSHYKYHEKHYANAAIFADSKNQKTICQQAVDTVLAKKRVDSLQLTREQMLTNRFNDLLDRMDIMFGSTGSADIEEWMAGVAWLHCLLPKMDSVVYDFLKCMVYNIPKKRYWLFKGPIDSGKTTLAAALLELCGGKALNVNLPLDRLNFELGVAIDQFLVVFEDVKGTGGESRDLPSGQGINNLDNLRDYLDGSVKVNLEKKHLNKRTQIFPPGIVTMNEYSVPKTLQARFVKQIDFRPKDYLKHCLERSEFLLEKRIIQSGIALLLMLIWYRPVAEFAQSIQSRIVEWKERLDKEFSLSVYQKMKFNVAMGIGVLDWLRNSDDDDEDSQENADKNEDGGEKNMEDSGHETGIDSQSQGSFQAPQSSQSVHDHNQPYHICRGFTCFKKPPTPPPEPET
ORF 73, sequence (O40947 whole entry): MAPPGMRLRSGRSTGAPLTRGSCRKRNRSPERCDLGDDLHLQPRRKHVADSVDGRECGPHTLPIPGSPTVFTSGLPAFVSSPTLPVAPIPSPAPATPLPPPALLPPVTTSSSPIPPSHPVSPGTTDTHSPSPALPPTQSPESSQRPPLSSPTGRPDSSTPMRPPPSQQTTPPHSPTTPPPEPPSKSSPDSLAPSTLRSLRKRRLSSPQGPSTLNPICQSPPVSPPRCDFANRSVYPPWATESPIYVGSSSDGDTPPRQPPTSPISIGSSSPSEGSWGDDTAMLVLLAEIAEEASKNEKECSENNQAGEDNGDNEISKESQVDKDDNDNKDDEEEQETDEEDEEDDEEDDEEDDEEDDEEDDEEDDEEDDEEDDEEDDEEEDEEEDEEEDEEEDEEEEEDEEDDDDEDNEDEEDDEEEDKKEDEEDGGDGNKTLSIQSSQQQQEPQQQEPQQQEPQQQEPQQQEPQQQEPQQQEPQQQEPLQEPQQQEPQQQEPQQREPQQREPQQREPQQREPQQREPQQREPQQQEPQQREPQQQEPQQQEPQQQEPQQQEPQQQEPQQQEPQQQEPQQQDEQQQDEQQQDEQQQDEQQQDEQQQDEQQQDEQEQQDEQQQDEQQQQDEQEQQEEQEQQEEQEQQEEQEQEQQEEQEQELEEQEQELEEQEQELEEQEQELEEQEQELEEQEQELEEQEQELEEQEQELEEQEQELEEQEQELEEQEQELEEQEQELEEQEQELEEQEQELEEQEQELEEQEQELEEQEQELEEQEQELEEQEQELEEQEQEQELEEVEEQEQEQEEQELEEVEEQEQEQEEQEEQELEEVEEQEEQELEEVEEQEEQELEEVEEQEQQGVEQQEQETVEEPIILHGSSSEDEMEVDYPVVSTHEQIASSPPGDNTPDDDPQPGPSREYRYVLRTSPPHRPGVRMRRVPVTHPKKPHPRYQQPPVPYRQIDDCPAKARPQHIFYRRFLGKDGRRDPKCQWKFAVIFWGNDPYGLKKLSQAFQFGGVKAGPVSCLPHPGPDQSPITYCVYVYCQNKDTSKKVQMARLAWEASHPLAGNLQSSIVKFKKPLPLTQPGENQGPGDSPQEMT
Eukaryotic translation initiation factor 4E, sequence (P63073 whole entry): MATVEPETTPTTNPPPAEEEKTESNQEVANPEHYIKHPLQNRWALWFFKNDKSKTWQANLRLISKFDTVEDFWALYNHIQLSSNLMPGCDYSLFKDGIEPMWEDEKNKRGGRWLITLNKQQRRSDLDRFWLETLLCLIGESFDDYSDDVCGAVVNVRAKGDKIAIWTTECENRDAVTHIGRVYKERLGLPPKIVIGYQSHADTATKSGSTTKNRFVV
Glyceraldehyde-3-phosphate dehydrogenase, sequence (P04406 whole entry): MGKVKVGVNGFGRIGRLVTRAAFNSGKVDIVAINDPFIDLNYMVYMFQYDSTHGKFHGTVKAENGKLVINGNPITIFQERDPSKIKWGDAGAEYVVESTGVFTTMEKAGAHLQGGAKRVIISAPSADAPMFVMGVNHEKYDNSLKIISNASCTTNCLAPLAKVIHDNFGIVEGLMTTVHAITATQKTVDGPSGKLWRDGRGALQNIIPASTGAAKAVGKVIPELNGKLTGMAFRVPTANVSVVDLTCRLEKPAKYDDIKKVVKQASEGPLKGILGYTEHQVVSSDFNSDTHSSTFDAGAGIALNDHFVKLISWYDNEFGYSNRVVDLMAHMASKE
Heat shock 70 kDa protein 1A, sequence (P0DMV8 whole entry): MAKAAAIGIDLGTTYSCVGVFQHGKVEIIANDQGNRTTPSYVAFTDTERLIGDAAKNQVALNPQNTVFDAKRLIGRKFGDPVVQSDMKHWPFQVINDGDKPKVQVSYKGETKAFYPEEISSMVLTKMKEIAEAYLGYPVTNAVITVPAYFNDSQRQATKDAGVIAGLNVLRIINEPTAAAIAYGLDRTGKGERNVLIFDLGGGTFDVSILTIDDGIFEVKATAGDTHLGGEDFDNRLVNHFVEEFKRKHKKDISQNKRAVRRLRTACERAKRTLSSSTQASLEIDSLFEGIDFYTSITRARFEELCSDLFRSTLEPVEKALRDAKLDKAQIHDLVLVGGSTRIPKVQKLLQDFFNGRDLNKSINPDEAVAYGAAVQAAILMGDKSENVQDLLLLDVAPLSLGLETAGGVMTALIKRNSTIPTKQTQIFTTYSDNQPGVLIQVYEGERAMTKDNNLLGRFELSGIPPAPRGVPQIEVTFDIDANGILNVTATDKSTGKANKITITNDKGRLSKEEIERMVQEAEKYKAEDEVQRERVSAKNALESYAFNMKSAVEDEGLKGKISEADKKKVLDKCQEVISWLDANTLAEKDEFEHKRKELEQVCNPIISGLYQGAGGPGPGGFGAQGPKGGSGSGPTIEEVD
Heat shock cognate 71 kDa protein, sequence (P11142 whole entry): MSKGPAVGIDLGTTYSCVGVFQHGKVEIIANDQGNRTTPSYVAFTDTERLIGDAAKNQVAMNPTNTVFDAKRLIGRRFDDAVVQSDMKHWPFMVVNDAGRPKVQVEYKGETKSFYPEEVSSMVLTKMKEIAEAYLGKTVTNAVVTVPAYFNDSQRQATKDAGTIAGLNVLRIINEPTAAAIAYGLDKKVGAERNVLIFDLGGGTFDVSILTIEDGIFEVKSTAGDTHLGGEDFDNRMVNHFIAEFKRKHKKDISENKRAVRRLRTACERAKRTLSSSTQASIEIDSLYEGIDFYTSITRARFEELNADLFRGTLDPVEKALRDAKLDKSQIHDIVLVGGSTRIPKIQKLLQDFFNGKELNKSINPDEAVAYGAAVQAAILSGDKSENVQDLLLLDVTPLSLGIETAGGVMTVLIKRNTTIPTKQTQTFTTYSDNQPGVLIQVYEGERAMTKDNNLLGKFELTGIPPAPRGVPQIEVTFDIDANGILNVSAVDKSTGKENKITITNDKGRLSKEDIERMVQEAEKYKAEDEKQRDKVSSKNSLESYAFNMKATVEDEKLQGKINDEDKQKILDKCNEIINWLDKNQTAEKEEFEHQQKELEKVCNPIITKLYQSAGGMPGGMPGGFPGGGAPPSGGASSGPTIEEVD
72 kDa type IV collagenase, sequence (P08253 whole entry): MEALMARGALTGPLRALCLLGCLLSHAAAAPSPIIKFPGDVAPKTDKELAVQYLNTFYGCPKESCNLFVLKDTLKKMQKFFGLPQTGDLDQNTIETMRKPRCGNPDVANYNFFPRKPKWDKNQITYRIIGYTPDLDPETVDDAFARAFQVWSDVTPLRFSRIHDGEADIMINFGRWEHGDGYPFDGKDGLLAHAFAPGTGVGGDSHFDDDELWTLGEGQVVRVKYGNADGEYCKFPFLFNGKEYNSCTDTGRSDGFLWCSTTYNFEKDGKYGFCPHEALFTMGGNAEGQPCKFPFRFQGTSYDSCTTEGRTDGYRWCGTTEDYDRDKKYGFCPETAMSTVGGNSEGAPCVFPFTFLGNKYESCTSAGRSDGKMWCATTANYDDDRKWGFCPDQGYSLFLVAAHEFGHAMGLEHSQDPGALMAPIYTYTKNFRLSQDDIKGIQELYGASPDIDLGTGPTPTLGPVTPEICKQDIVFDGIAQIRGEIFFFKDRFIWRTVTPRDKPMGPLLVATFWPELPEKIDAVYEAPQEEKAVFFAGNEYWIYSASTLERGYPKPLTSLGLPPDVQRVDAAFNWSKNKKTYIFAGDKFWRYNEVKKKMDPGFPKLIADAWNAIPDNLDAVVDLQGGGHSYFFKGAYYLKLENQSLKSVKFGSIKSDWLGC
26S proteasome non-ATPase regulatory subunit 14, sequence (O00487 whole entry): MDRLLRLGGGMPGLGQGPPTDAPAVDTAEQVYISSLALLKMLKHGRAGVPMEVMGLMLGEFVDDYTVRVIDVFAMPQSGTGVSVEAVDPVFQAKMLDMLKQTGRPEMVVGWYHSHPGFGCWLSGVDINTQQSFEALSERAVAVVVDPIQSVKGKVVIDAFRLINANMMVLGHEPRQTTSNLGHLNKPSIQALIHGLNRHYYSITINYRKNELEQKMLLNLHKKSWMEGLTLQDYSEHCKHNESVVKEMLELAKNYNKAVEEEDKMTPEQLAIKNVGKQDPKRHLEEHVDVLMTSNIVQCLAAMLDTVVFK

Q: What does the source list for `Nc1ncnc(N2CCc3ccccc32)c1[N+](=O)[O-]`?
A: AC50 (HEK293): 4.52 µM (active); IC50 (Interleukin-8 [1]): 40.1 µM (inactive); IC50 (Interleukin-8 [2]): > 79 µM (inactive)

Q: For `Cc1nc(SCC(=O)NC2CCCCC2)nc(O)c1C`, which CC50 [3] is on record?
A: Its CC50 is > 50 µM (active).

Q: Which IC50 (Prothrombin) does the source give for `O=C1CC(=O)N(Cc2ccco2)C(=O)N1` here?
A: Its IC50 is 59.1 µM (active).

Q: What about the IC50 [4] of the same compound?
A: Its IC50 is 1.58 µM (active).

Q: And the IC50 [5]?
A: The IC50 was 9.99 µM (active).

Q: And the IC50 [6]?
A: Its IC50 is > 64 µM (inactive).

Q: What about the IC50 (Large T antigen) of the same compound?
A: Its IC50 is 76.3 µM (active).

Q: And the IC50 [7]?
A: The IC50 was 5.11 µM (active).

Q: And the IC50 [8]?
A: The IC50 was > 100 µM (inactive).

Q: And the AC50 (ORF 73)?
A: Its AC50 is 132 µM (active).

Q: What about the IC50 [9] of the same compound?
A: The IC50 was > 100 µM (not active).

Q: And the IC50 [10]?
A: The IC50 was > 100 µM (not active).

Q: What about the AC50 (HeLa) of the same compound?
A: The AC50 was > 350 µM (inactive).

Q: What about the IC50 [11] of the same compound?
A: Its IC50 is > 100 µM (not active).

Q: And the IC50 [12]?
A: The IC50 was 1.04 µM (active).

Q: What about the IC50 [13] of the same compound?
A: Its IC50 is > 10 µM (not active).

Q: And the IC50 [14]?
A: Its IC50 is > 100 µM (inactive).

Q: And the AC50 [15]?
A: Its AC50 is 11.2 µM (active).

Q: For `COc1ccc(C(=O)NC2CCc3ccccc32)cc1OC1CCN(C(C)C)CC1` (stereo not drawn), which IC50 [16] is on record?
A: Its IC50 is 2.12 µM (active).

Q: And the IC50 [17]?
A: Its IC50 is 5.55 µM (active).

Q: What about the IC50 [18] of the same compound?
A: Its IC50 is 3.36 µM (active).
